Test results reported in patent publication US20100107281A1, “PESTICIDAL COMBINATIONS” (priority 2006, published 2010).

System: Soybean Cyst Nematode (Heterodera Glycines)
Assay: Soybean cyst nematode reproduction on seed-treated soybean plants in cone-tainers, eggs counted 30 days after inoculation
Assay type: in vivo
Settings: soybean seed treatment
Excerpt: The expected percentage of disease control to be expected, E, for a given combination of two active ingredients can be calculated as follows (see COLBY, S. R. “Calculating synergistic and antagonistic response of herbicide combinations”. Weeds 15, pages 20-22; 1967):
wherein: X=% disease control in the case of treatment with active ingredient (A) at a defined application rate, in comparison with untreated control (=0%). Y=% disease control in the case of treatment with active ingredient (B) at a defined application rate, in comparison with untreated control. E=expected percentage of disease control (% disease control in comparison with untreated control) after treatment with active ingredient (A) and active ingredient (B) at a defined application rate. If the observed percentage of disease control O is greater than the expected value E, there is a synergistic effect.
Soybeans were planted into “cone-tainers” (3.8 cm cell diameter; 14 cm cell depth; the Ray Leach “Cone-tainer” Single Cell System consists of individual cells that can be arranged within a tray and is available from Stuewe and Sons Incorporated) in 70% sand 30% clay loam soil mix (one soybean seed per cone-tainer). The cone-tainers contained a 10 cm by 10 cm piece of cheesecloth at the bottom to prevent the soil coming out of the bottom. The soil mix was autoclaved for 60 minutes prior to use. Extra cone-tainers were planted which allowed similar size soybean plants to be selected and placed into a randomized complete block design with 3 replications of each treatment. The cone-tainers were placed into a growth chamber set at 27° C. and 14 hour day light periods. The air temperature in the growth chamber was monitored in 15 minutes intervals using a watchdog data collector. […] The water source was supplemented with fertilizer to promote plant growth.
Soil was collected from a field with “HG type” 2.5.7 (The “HG type” test is a greenhouse test that provides information on how well a soybean cyst nematode “Heterodera glycines, HG” population can reproduce in a particular soil). The soil was added to water and poured over a 25 mesh sieve over a 60 mesh sieve to collect the cysts. The soil solution collected on the 60 mesh sieve was then placed onto a 120 mesh sieve over 500 mesh sieve. […]
The soybean plants were inoculated with 6,000 soybean cyst nematode eggs 7 days after the planting of the soybeans into the cone-tainers. […] The air temperature in the growth chamber was monitored in 15 minutes intervals using a watchdog data collector. […]
The plants were removed from the growth chamber 30 days after inoculation to assess the nematode reproduction factor. […] The total number of soybean cyst nematode eggs present in each sample was determined. […]

Row | Molecule | Observed Rf (nematode reproduction factor) (0.15 mg abamectin/seed, 30 days after inoculation with 6,000 eggs) | Observed Rf (nematode reproduction factor) (2.5 g acibenzolar-S-methyl/100 kg seed, 30 days after inoculation) | Observed Rf (nematode reproduction factor) (5.0 g acibenzolar-S-methyl/100 kg seed, 30 days after inoculation) | Observed Rf (nematode reproduction factor) (10.0 g acibenzolar-S-methyl/100 kg seed, 30 days after inoculation)
1 | abamectin [(A-a)] | 2.5 | – | – | –
2 | CSC(=O)c1cccc2nnsc12 [(B-1), acibenzolar-S-methyl] | – | 4.1 | 2.7 | 3.9
